In US8420679B2, “Aminothiazole derivatives and their use as CRF receptor ligands” (Sanofi, priority 1999, dated 2013):
Where a name gives a salt, the structure may show the parent alone.

| melting point | SMILES |
| --- | --- |
| 70 °C | C=CCN(c1nc(-c2ccc(OC)cc2Cl)c(C)s1)C(COC)c1ccccc1 (centres unmarked) (as salt: hydrochloride) (hydrate or solvate) [Example 23, Allyl-[4-(2-chloro-4-methoxyphenyl)-5-methylthiazol-2-yl]-(2-methoxy-1-phenylethyl)amine] |
| 70 °C | CC#CCN(c1nc(-c2ccc(OC)cc2Cl)c(C)s1)C(COC)c1ccccc1 (centres unmarked) (as salt: hydrochloride) (hydrate or solvate) [Example 24, But-2-ynyl-[4-(2-chloro-4-methoxyphenyl)-5-methylthiazol-2-yl]-[2-methoxy-1-phenylethyl]amine] |
